{"source": "patent US20100003276A1", "about": "(priority 2004, published 2010)", "target": "Bacillus anthracis lethal factor (Bacillus anthracis, UniProt P15917)", "sequence (P15917 34-809 limits assumed)": "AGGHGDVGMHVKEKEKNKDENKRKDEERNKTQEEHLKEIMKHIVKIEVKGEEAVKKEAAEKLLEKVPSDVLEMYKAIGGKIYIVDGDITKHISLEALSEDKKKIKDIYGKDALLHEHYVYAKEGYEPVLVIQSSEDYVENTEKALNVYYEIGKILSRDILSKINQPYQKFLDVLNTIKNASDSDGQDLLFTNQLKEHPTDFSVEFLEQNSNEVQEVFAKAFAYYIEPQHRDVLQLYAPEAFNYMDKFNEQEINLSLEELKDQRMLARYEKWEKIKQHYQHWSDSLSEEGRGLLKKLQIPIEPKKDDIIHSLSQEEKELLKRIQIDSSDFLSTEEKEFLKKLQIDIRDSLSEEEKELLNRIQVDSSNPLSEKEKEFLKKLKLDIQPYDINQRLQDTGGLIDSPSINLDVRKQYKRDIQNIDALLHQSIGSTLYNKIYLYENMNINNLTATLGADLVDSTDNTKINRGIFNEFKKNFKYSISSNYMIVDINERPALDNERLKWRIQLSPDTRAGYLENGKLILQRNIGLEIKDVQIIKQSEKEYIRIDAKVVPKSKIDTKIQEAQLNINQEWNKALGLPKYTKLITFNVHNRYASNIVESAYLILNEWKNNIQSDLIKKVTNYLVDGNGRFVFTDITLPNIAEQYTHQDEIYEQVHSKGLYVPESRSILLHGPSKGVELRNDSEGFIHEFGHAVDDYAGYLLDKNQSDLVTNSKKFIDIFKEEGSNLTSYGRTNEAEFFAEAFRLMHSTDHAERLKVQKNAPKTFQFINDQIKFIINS", "format": "biochemical", "conditions": "read-out: lethal factor enzyme binding assay IC50"}
{"compound": "Cc1cc(S(=O)(=O)N[C@@H](C(=O)NO)C(C)C)ccc1F", "note": "[N-hydroxy-2(R)-[(4-fluoro-3-methylphenylsulfonyl)]amino-3-methylbutyramide]", "values": [{"measurement": "IC50", "value": 130, "unit": "nM"}]}
